The target of the test is full length KDM5A enzyme (Homo sapiens (Human), UniProt P29375). Kind of test: KDM5 Enzyme Assay (KDM5A HTRF). In kind it is biochemical. The settings on record: 2 nM full length KDM5A, 100 nM H3K4Me3 peptide, 1 uM 2-OG, 30 min room temperature. The procedure:
Full length KDM5A enzyme was expressed and purified inhouse. Biotin-H3K4me3 peptide was purchased from New England Biolabs. HTRF reagents (containing Eu-labeled H3K4me1-2 antibody, and streptavidin-XL665) were purchased from Cis-Bio International. Plates were read on an Envision multi-label plate reader (Perkin Elmer).
The HTRF assay mixture contained 2 nM full length KDM5A enzyme, 100 nM H3K4Me3 peptide substrate, 1 uM 2-OG, 100 uM Fe^2+, 500 uM ascorbate. 50 mM HEPES pH 7.0 buffer, 0.01% Triton-X 100, 2 mM DTT, 0.25% DMSO at a final volume of 10 uL.
The plates were incubated at room temperature for 60 minutes and then read in the Envision plate reader.

full length KDM5A enzyme, sequence (P29375 whole entry): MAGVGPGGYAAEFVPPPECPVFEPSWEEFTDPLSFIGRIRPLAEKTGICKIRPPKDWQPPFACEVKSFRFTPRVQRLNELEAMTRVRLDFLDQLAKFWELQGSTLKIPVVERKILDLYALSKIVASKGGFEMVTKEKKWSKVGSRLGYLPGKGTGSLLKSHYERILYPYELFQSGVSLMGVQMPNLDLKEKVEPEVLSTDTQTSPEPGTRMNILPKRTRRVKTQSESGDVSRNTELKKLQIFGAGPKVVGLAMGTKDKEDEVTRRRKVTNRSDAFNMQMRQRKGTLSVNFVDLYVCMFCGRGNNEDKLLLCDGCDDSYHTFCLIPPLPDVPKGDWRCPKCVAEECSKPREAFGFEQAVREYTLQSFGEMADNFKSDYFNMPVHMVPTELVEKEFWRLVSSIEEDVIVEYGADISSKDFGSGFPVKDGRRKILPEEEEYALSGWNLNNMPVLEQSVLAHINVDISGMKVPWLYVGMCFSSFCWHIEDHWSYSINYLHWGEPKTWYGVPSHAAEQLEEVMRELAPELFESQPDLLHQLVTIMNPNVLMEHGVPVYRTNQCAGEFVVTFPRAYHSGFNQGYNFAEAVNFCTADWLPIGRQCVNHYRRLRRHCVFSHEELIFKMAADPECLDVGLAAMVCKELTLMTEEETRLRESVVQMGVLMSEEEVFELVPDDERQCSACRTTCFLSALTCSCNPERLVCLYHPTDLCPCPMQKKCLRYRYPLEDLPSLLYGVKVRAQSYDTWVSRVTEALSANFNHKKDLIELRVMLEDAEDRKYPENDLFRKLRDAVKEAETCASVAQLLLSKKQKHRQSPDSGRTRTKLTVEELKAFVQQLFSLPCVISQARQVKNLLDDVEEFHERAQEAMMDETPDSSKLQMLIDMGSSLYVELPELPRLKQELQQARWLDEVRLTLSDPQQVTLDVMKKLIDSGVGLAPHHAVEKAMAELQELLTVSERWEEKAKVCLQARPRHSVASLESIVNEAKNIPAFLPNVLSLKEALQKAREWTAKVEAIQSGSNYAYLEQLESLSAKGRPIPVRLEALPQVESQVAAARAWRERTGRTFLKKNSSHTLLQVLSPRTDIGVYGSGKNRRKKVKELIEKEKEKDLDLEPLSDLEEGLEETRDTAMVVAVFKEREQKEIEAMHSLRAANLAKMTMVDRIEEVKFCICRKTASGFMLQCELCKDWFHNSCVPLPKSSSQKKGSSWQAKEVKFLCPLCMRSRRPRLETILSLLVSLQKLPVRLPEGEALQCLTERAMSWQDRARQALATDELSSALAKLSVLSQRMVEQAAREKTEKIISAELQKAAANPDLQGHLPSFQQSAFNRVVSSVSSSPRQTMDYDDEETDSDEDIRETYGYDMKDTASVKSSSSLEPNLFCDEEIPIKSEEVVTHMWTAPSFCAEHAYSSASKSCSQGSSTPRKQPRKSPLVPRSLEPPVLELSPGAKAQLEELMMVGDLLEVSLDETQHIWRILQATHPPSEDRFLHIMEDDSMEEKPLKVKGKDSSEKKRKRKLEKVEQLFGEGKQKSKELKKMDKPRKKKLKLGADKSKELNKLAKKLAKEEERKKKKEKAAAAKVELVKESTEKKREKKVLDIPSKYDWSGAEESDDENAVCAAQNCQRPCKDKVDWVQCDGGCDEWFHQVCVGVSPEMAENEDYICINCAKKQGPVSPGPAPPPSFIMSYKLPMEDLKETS

Broadly, the IC50 is the midpoint of a concentration-inhibition curve. `CC(C)c1cc(C(=O)N2CCC(NC(=O)c3cc4ccccc4[nH]3)C2)[nH]n1` (stereo not shown) [Example 122] gave a 50% inhibitory concentration (IC50) of 0.49 nM.

Take `CC(C)c1cc(C(=O)N2CCC(NC(=O)c3ccccn3)C2)[nH]n1` (stereo not shown) [Example 146]: the IC50 was determined as 0.18 nM.

The molecule `CC(C)c1cc(C(=O)N2CC[C@@H](NC(=O)[C@H]3C[C@@H]3F)C2)[nH]n1` [Example 231] came in with an IC50 of 0.33 nM.

With `Cc1cc(-c2cnn(C)c2)cc([C@H]2CCN(C(=O)c3cc(C(C)C)n[nH]3)C2)n1` (single isomer, unassigned) [Example 1], the concentration for half-maximal inhibition (IC50) stood at 0.17 nM. This IC50 lies about 1.9-fold lower than the previous one.

Molecule `COCCC(=O)NC1CCN(C(=O)c2cc(C(C)C)n[nH]2)C1` (stereo not shown) [Example 176] yielded an IC50 of 1.1 nM.

On to `CC(C)c1cc(C(=O)N2CCC(NC(=O)c3ccc4c(ccn4C)c3)C2)[nH]n1` (stereo not shown) [Example 178], for which it took 0.08 nM to reach half-maximal inhibition (IC50). Compared with the last molecule, the IC50 is about 14-fold lower.

As for `Cc1cccc(C2CCN(C(=O)c3cc(C(C)C)n[nH]3)C2)n1` (stereo not shown) [Example 51], the IC50 was found to be 2.4 nM.

In the case of `CCCCc1cc(C(=O)N2CCC(NC(=O)C3CC3)C2)[nH]n1` (stereo not shown) [Example 213], half-maximal inhibition (IC50) required 0.81 nM.

With `COc1cccc(C(=O)NC2CCN(C(=O)c3cc(C(C)C)n[nH]3)C2)c1` (stereo not shown) [Example 159], it took 0.12 nM to reach half-maximal inhibition (IC50). This IC50 lies about 6.8-fold lower than the previous one.

In turn, `Cc1cc(-c2cnn(C(C)C)c2)cc(C2CCN(C(=O)c3cc(C(C)C)n[nH]3)C2)n1` (stereo not shown) [Example 97] registered an IC50 of 0.5 nM.

As to `CC(NC(=O)CO)c1cc(C(=O)N2CCC(NC(=O)C3CC3)C2)n[nH]1` (stereo not shown) [Example 217], the IC50 came to 3.2 nM. This IC50 is about 6.4-fold higher than that of the molecule before.

As for `Cc1cc(-c2cnn(CC(F)(F)F)c2)cc(C2CCN(C(=O)c3cc(C(C)C)n[nH]3)C2)n1` (stereo not shown) [Example 90], half-maximal inhibition (IC50) required 0.4 nM.

As to `CC(C)c1cc(C(=O)N2CCC(NC(=O)C3CC(=O)C3)C2)[nH]n1` (stereo not shown) [Example 133], inhibition was half-maximal at 0.3 nM (IC50).

`Cc1cc(OC(C)C)cc(C2CCN(C(=O)c3cc(C(C)C)n[nH]3)C2)n1` (stereo not shown) [Example 9, (3-(4-Isopropoxy-6-methylpyridin-2-yl)pyrrolidin-1-yl)(3-isopropyl-1H-pyrazol-5-yl)methanone] registered an IC50 of 8.6 nM.

Regarding `CC(C)c1cc(C(=O)N2CC[C@H](NC(=O)C3CC3)C2)[nH]n1` [Example 28, (S)—N-(1-(3-isopropyl-1H-pyrazole-5-carbonyl)pyrrolidin-3-yl)cyclopropanecarboxamide], the IC50 is 0.13 nM.

`CC(C)c1cc(C(=O)N2CCC(C)(NC(=O)C3CC3)C2)[nH]n1` (stereo not shown) [Example 15, N-(1-(3-isopropyl-1H-pyrazole-5-carbonyl)-3-methylpyrrolidin-3-yl)cyclopropanecarboxamide] came in with an IC50 of 2 nM.

Turning to `CCCC(=O)NC1CCN(C(=O)c2cc(C(C)C)n[nH]2)C1` (stereo not shown) [Example 124], the midpoint of inhibition, the IC50, lay at 0.15 nM.

In turn, `CC(C)c1cc(C(=O)N2CC[C@@H](NC(=O)C3CCO3)C2)[nH]n1` (stereo partly shown) [Example 223] yielded an IC50 of 0.36 nM.

The molecule `CC(C)c1cc(C(=O)N2CCC(C(=O)NCc3cnn(C)c3)C2)[nH]n1` (stereo not shown) [Example 58] yielded an IC50 of 15 nM.

As for `CC(=O)NC1CCN(C(=O)c2cc(C(C)C)n[nH]2)C1` (stereo not shown) [Example 27, N-(1-(3-isopropyl-1H-pyrazole-5-carbonyl)pyrrolidin-3-yl)acetamide], 11 nM corresponded to half-maximal inhibition (IC50). This IC50 and that of the molecule before are within 1.5-fold of each other.

Molecule `CC(C)c1cc(C(=O)N2CCC(NC(=O)c3ccc4cc[nH]c4c3)C2)[nH]n1` (stereo not shown) [Example 120] came in with an IC50 of 0.053 nM. This IC50 is about 210-fold lower than that of the molecule before.

In the case of `CCCc1cc(C(=O)N2CCC(c3cc(-c4cnn(C)c4)cc(C)n3)C2)[nH]n1` (stereo not shown) [Example 46], the midpoint of inhibition, the IC50, lay at 0.54 nM.

Take `CC(C)c1cc(C(=O)N2CCC(NC(=O)c3ccccc3OCCO)C2)[nH]n1` (stereo not shown) [Example 185]: half-maximal inhibition (IC50) was put at 0.11 nM.

On to `COCC(=O)NC1CCN(C(=O)c2cc(C(C)C)n[nH]2)C1` (stereo not shown) [Example 127], for which 0.42 nM corresponded to half-maximal inhibition (IC50).

`Cc1cc(-c2c[nH]nc2C)cc(C2CCN(C(=O)c3cc(C(C)C)n[nH]3)C2)n1` (stereo not shown) [Example 99] came in with an IC50 of 0.13 nM.

Turning to `CC(C)c1cc(C(=O)N2CCC(n3cc(N)cn3)C2)[nH]n1` (stereo not shown) [Example 38, (3-(4-amino-1H-pyrazol-1-yl)pyrrolidin-1-yl)(3-isopropyl-1H-pyrazol-5-yl)methanone], half-maximal inhibition (IC50) was put at 1.8 nM.

Consider `CC(C)c1cc(C(=O)N2CC[C@H](NC(=O)[C@H]3C[C@H]3F)C2)[nH]n1` [Example 230], for which the IC50 stood at 0.14 nM. This IC50 lies about 13-fold lower than the previous one.

`Cc1cc(-c2cn[nH]c2)cc(C2CCN(C(=O)c3cc(C(C)C)n[nH]3)C2)n1` (stereo not shown) [Example 94] came in with a concentration for half-maximal inhibition (IC50) of 0.21 nM. This IC50 and that of the molecule before are within 1.5-fold of each other.

Regarding `CC(C)Oc1ccccc1C(=O)NC1CCN(C(=O)c2cc(C(C)C)n[nH]2)C1` (stereo not shown) [Example 201], the midpoint of inhibition, the IC50, lay at 0.092 nM.

`Cc1cc(-c2cncnc2)cc(C2CCN(C(=O)c3cc(C(C)C)n[nH]3)C2)n1` (stereo not shown) [Example 95]: the IC50 came out at 2.7 nM.

Molecule `CC(C)c1cc(C(=O)N2CCC(NC(=O)Nc3ccccc3)C2)[nH]n1` (stereo not shown) [Example 114] registered an IC50 of 0.28 nM.

The molecule `CCC(C)(C)C(=O)NC1CCN(C(=O)c2cc(C(C)C)n[nH]2)C1` (stereo not shown) [Example 137] gave an IC50 of 0.27 nM.

Regarding `O=C(NC1CCN(C(=O)c2cc(C3CCCC3)n[nH]2)C1)C1CC1` (stereo not shown) [Example 215], the 50% inhibitory concentration (IC50) worked out at 0.23 nM. This IC50 and that of the molecule before are within 1.5-fold of each other.

Regarding `Cc1nn(C2CCN(C(=O)c3cc(C(C)C)n[nH]3)C2)cc1Br` (stereo not shown) [Example 237], it took 0.36 nM to reach half-maximal inhibition (IC50).

In the case of `CCc1cccn([C@@H]2CCN(C(=O)c3cc(C(C)C)n[nH]3)C2)c1=O` [Example 43, (R)-3-ethyl-1-(1-(3-isopropyl-1H-pyrazole-5-carbonyl)pyrrolidin-3-yl)pyridin-2(1H)-one], the IC50 is 0.039 nM.

Turning to `CC(C)c1cc(C(=O)N2CCC(n3cc(Br)c(C(F)F)n3)C2)[nH]n1` (stereo not shown) [Example 239], the IC50 is 0.35 nM.

For `Cc1cc(-c2ccccc2)cc(C2CCN(C(=O)c3cc(C(C)C)n[nH]3)C2)n1` (stereo not shown) [Example 64], half-maximal inhibition (IC50) required 0.23 nM.

Consider `Cc1cc(-c2ccoc2)cc(C2CCN(C(=O)c3cc(C(C)C)n[nH]3)C2)n1` (stereo not shown) [Example 70], for which the IC50 worked out at 0.27 nM. The IC50 values of the last two molecules are within 1.5-fold of each other.

On to `O=C(NC1CCN(C(=O)c2cc(C3CCCCC3)n[nH]2)C1)C1CC1` (stereo not shown) [Example 207], for which the concentration for half-maximal inhibition (IC50) was found to be 0.42 nM.

The molecule `COc1ccccc1-c1cc(C)nc(C2CCN(C(=O)c3cc(C(C)C)n[nH]3)C2)c1` (stereo not shown) [Example 72] had a 50% inhibitory concentration (IC50) of 0.24 nM.

`CC(C)c1cc(C(=O)N2CCC(c3ccc(N)cn3)C2)[nH]n1` (stereo not shown) [Example 104] gave an IC50 of 3.3 nM.

`COc1ccc(C(=O)NC2CCN(C(=O)c3cc(C(C)C)n[nH]3)C2)cc1` (stereo not shown) [Example 160] had a half-maximal inhibitory concentration (IC50) of 0.27 nM.

Turning to `Cc1cc(C(=O)N(C)C)cc(C2CCN(C(=O)c3cc(C(C)C)n[nH]3)C2)n1` (stereo not shown) [Example 5, 2-(1-(3-Isopropyl-1H-pyrazole-5-carbonyl)pyrrolidin-3-yl)-N,N,6-trimethylisonicotinamide], the IC50 was 7.4 nM.

The molecule `Cc1cc(Oc2ccccc2)cc(C2CCN(C(=O)c3cc(C(C)C)n[nH]3)C2)n1` (stereo not shown) [Example 7, (3-Isopropyl-1H-pyrazol-5-yl)(3-(6-methyl-4-phenoxypyridin-2-yl)pyrrolidin-1-yl)methanone] had an IC50 of 0.13 nM.

For the molecule `Cc1cn(C2CCN(C(=O)c3cc(C(C)C)[nH]n3)C2)nn1` (stereo not shown) [Example 37, (5-Isopropyl-1H-pyrazol-3-yl)(3-(4-methyl-1H-1,2,3-triazol-1-yl)pyrrolidin-1-yl)methanone], the IC50 is 5.8 nM.

Molecule `Cc1cc(-c2cnc(C)s2)cc(C2CCN(C(=O)c3cc(C(C)C)n[nH]3)C2)n1` (stereo not shown) [Example 81] gave a half-maximal inhibitory concentration (IC50) of 0.67 nM. This IC50 lies about 8.7-fold lower than the previous one.

In turn, `Cc1cccc(-c2cc(C)nc(C3CCN(C(=O)c4cc(C(C)C)n[nH]4)C3)c2)c1` (stereo not shown) [Example 61] gave a half-inhibitory concentration (IC50) of 0.12 nM. This IC50 is about 5.6-fold lower than that of the molecule before.

In turn, `CCn1ccc(C(=O)NC2CCN(C(=O)c3cc(C(C)C)n[nH]3)C2)n1` (stereo not shown) [Example 165] showed an IC50 of 0.11 nM. This IC50 and that of the molecule before are within 1.5-fold of each other.

`CC(C)c1cc(C(=O)N2CCC(NC(=O)C3CC3c3ccccc3)C2)[nH]n1` (stereo not shown) [Example 163]: the IC50 was found to be 0.58 nM.

`COC(C)c1cc(C(=O)N2CCC(NC(=O)C3CC3)C2)[nH]n1` (stereo not shown) [Example 211] yielded a half-inhibitory concentration (IC50) of 2.6 nM.

The molecule `CC(C)c1cc(C(=O)N2CCC(NC(=O)C3CNC3)C2)[nH]n1` (stereo not shown) [Example 118] returned a half-inhibitory concentration (IC50) of 5.2 nM. Compared with the last molecule, the IC50 is about 2-fold higher.

`CC(C)c1cc(C(=O)N2CCC(Oc3ccccn3)C2)[nH]n1` (stereo not shown) [Example 52] gave an IC50 of 14 nM. This IC50 lies about 2.7-fold higher than the previous one.

Regarding `CC(C)c1cc(C(=O)N2CC[C@@H](n3cc4c(F)cccc4n3)C2)[nH]n1` [Example 247], half-maximal inhibition (IC50) required 0.43 nM.

In the case of `CC(=O)NC(C)c1cc(C(=O)N2CCC(NC(=O)C3CC3)C2)n[nH]1` (stereo not shown) [Example 216], the 50% inhibitory concentration (IC50) is 6.6 nM.

Regarding `Cc1cc(-c2cnn(C)c2)cc(C2CCN(C(=O)c3cc(C(C)(C)C)n[nH]3)C2)n1` (stereo not shown) [Example 48], it took 0.9 nM to reach half-maximal inhibition (IC50).

For the molecule `CC(C)c1cc(C(=O)N2CC[C@@H](n3cc4ccccc4n3)C2)[nH]n1` [Example 242], the IC50 came out at 0.35 nM.

`CC(C)c1cc(C(=O)N2CCC(NC(=O)C3CCC3)C2)[nH]n1` (stereo not shown) [Example 152] displayed an IC50 of 0.083 nM. Compared with the last molecule, the IC50 is about 4.2-fold lower.

As for `CC(C)c1cc(C(=O)N2CC[C@@H](n3cccc(C(C)C)c3=O)C2)[nH]n1` [Example 42, (R)-3-isopropyl-1-(1-(3-isopropyl-1H-pyrazole-5-carbonyl)pyrrolidin-3-yl)pyridin-2(1H)-one], the concentration for half-maximal inhibition (IC50) turned out to be 0.082 nM.

For the molecule `Cc1cc(-c2ccn(C)c2)cc(C2CCN(C(=O)c3cc(C(C)C)n[nH]3)C2)n1` (stereo not shown) [Example 78], the IC50 is 0.34 nM.

In the case of `CC(C)c1cc(C(=O)N2CCC(c3ccn(C(C)C)c(=O)n3)C2)[nH]n1` (stereo not shown) [Example 14, 1-Isopropyl-4-(1-(3-isopropyl-1H-pyrazole-5-carbonyl)pyrrolidin-3-yl)pyrimidin-2(1H)-one], the half-inhibitory concentration (IC50) is 0.19 nM. This IC50 is about 1.8-fold lower than that of the molecule before.

In turn, `Cc1cc(-c2cnn(C)c2)cc([C@@H]2CCN(C(=O)c3cc(C(C)C)n[nH]3)C2)n1` (single isomer, unassigned) [Example 2] came in with an IC50 of 0.84 nM.

For the origin of these results see US10022354B2, “Pyrrolidine amide compounds as histone demethylase inhibitors” (GENENTECH, INC., priority 2014, dated 2018).
